Results: US20060234987A1, “Neuroprotective benzo 1 3 oxathiol 2 ones” (priority 2003, published 2006)
Like-named read-outs stand apart in the source and are kept apart here.

Tests used:
Assay type in all cases: biochemical
LAR = target: T1, LAR (Homo sapiens, UniProt P10586); assay: LAR Assay; settings: Table 6
T1 construct: purchased BIOMOL Research Laboratories, Inc
Experimental: C) LAR Assay: Inhibition of the phosphatase LAR was performed according to reported procedures (Cho, H. Biochemistry 1991, 30, 6210; 1992, 31, 133; Cho, H. Prot. Sci., 1993, 2, 977). LAR was purchased from BIOMOL Research Laboratories, Inc.

SHP2 = target: T2, SHP2 (Homo sapiens, UniProt Q06124); assay: Phosphatase profile: SHP2 inhibition (DIFMUP fluorescence); settings: Table 6
T2 construct: made in house; host or cells: adenovirus vector
T2 sequence (Q06124 1-593): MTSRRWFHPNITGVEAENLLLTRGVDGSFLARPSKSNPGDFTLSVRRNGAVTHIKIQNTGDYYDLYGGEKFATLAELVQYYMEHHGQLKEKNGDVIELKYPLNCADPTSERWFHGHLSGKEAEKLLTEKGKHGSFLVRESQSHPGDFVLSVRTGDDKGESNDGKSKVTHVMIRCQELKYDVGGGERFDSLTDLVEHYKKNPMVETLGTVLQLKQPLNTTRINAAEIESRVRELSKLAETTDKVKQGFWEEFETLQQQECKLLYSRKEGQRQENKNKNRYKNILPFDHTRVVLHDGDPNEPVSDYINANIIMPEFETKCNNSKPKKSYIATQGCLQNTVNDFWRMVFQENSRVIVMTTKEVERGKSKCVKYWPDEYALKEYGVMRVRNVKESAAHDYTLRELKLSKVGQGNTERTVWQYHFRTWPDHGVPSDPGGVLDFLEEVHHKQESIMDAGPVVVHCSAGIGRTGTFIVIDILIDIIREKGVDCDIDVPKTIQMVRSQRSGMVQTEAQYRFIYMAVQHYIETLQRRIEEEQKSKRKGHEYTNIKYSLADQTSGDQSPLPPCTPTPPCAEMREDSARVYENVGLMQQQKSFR
Experimental: (§1) A) SHP1 and SHP2: SHP1 and SHP2 adenovirus vectors were prepared. SHP1 and SHP2 were independently over expressed, isolated and purified using FPLC. Enzyme was diluted to 1000-1400 FU/min. Enzyme (45 μL) was uniformLy plated in 96 well plates and treated with serial dilutions of compound (2 μL in DMSO). Compound and enzyme are allowed to incubate for 30 minutes at RT before the addition of DIFMUP (100 μM). The solutions are allowed to incubate at RT for 10 minutes prior to reading the fluorescence, to provide IC50 curves using LSW Data Analysis Tool Box (MDL).

PP1 = PP1 Assay; settings: Table 6
Experimental: E) PP1 Assay: Inhibition of the phosphatase PP1 was performed according to reported procedures (Nat. Biotechnol., 2000, 18, 847).

SHP1 = target: T3, SHP1 (Homo sapiens, UniProt P29350); assay: Phosphatase profile: SHP1 inhibition (DIFMUP fluorescence)
T3 construct: made in house; host or cells: adenovirus vector
T3 sequence (P29350 whole entry): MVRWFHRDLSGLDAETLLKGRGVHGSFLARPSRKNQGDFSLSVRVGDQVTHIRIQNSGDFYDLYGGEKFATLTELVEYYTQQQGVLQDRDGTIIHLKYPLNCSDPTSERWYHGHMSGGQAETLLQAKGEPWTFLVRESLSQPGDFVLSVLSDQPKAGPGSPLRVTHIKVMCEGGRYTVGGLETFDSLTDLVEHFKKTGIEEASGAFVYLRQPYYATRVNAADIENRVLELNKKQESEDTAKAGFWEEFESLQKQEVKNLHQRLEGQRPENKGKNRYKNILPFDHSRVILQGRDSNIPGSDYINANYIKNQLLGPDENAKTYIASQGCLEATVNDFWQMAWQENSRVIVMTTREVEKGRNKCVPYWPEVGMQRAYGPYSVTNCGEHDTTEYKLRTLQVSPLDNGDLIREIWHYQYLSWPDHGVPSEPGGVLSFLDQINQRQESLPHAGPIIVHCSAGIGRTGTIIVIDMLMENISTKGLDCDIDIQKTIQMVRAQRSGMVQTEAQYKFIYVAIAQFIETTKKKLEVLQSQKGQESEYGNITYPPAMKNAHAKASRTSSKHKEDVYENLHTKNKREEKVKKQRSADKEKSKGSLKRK
Experimental: as §1

CD45 = target: T4, CD45 (Homo sapiens, UniProt P08575); assay: CD45 (PTPase) Assay; settings: Table 6
T4 construct: purchased BIOMOL Research Laboratories, Inc
T4 sequence (P08575 26-1306): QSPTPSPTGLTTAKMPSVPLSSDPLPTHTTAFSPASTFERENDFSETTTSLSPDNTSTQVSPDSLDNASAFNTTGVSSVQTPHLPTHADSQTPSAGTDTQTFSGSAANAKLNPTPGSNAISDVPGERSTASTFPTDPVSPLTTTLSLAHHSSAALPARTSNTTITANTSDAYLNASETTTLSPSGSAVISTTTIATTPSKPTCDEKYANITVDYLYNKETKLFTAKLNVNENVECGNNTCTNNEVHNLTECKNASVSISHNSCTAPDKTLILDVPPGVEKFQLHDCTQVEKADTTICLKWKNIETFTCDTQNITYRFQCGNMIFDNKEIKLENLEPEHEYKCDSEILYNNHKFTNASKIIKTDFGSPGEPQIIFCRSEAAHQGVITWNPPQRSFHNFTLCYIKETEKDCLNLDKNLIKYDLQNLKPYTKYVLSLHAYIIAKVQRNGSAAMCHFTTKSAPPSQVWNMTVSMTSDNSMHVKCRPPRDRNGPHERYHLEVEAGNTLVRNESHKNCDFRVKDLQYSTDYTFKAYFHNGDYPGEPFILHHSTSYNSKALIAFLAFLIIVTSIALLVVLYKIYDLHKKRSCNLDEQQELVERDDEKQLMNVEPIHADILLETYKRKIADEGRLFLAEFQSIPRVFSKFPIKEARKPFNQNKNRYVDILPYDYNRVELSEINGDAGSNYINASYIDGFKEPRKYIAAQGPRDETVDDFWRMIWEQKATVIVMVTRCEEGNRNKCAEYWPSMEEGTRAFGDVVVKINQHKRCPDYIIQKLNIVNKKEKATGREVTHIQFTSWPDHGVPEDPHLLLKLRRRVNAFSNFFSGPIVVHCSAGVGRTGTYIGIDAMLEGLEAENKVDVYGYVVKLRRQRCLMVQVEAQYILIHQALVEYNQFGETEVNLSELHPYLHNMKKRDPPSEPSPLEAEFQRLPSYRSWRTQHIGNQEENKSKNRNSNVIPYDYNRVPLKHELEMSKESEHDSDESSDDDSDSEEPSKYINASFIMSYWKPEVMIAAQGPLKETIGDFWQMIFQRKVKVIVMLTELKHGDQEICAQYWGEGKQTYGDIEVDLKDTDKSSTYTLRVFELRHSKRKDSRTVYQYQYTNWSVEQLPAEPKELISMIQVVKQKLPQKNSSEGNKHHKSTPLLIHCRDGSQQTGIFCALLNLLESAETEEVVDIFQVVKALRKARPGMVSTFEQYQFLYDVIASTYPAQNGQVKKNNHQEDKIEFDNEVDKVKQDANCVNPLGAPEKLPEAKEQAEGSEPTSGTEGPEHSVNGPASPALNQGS
Experimental: D) CD45 (PTPase) Assay: Inhibition of the phosphatase CD45 was performed according to reported procedures (Pacitti, A. et al Biochem. Biophys. Acta, 1994, 1222, 277; Fisher, D. K. and Higgins, T. J. Pharmacol. Res., 1994, 11, 759). CD45 was purchased from BIOMOL Research Laboratories, Inc.

T1 sequence (P10586 30-1907, species assumed): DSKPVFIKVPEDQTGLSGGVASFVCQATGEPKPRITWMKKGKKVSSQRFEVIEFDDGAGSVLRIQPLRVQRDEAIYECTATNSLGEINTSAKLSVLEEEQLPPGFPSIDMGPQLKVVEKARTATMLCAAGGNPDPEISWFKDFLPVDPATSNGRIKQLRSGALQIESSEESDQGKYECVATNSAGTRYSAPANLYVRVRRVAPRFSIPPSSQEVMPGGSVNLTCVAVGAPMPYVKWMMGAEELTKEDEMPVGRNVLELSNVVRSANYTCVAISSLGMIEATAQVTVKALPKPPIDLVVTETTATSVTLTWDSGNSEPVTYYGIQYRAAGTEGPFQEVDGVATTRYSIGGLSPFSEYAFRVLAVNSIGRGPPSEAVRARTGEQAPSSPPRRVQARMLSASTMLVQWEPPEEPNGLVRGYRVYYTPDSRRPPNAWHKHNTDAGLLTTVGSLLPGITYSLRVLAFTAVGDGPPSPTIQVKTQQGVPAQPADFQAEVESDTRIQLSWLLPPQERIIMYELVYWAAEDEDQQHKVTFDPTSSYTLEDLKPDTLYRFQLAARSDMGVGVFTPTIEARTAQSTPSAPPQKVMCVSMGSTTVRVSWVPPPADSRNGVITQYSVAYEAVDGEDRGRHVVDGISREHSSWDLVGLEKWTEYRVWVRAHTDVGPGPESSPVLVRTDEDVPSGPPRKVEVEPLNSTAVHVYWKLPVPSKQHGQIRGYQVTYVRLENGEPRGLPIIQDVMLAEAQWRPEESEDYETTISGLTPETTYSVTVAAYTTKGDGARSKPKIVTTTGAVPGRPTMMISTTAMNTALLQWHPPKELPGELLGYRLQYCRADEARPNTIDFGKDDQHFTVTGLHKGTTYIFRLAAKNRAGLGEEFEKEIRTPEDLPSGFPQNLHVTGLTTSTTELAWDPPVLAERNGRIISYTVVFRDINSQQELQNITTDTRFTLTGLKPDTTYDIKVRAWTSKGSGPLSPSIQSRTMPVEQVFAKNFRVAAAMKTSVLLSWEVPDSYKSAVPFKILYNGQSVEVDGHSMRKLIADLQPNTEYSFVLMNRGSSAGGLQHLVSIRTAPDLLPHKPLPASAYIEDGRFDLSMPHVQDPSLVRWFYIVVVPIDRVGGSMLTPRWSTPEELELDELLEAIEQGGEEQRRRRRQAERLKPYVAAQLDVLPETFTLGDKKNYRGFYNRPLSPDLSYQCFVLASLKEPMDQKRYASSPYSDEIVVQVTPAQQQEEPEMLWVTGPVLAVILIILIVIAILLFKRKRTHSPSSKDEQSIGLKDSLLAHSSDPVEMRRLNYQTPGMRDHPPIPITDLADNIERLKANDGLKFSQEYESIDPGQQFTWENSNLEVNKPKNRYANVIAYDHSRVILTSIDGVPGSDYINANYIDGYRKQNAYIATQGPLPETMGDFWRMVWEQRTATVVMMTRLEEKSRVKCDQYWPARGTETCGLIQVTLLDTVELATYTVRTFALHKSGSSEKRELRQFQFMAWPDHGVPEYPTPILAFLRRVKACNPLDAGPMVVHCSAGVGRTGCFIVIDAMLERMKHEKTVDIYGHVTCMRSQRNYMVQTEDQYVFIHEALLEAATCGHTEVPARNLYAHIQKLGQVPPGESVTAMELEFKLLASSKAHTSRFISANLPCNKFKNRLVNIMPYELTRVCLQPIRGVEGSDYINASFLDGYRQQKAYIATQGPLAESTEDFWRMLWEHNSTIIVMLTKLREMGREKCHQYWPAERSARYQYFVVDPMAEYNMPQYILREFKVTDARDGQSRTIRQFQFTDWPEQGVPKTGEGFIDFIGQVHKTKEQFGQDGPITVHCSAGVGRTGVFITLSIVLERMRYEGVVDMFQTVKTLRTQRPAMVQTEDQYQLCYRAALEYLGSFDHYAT

| IC50 (LAR) | IC50 (SHP2) | PP1 IC50 (PP1) | IC50 (SHP1; FIG. 1 legend, read-out: SHP1 IC50 (FIG. 1 inhibition curve)) | IC50 (SHP1; Table 6, read-out: SHP1 IC50) | C45 IC50 (CD45) | LAR IC50 (LAR) | Compound |
| --- | --- | --- | --- | --- | --- | --- | --- |
| > 100 µM | 16.5 µM | no inh. | 10.6 µM | 10.9 µM | no inh. | – | O=c1oc2c(Sc3ccc4ccccc4c3)cc(O)cc2s1 [Compound 23, 5-Hydroxy-7-((2-naphthy)sulfanyl)benzo[1,3]oxathiol-2-one] |
| – | 18.4 µM | no inh. | – | 5.41 µM | no inh. | no inh. | O=c1oc2c(Sc3ccc4ccccc4c3)cc(O)c(Sc3ccc4ccccc4c3)c2s1 [Compound 30, 4,7-Bis-((2-naphthyl)sulfanyl)-5-hydroxybenzo[1,3]oxathiol-2-one] |
